According to PubChem BioAssay (NCI):
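1) Cells in 96-well plates. 2) Compound, 48 h, 5 concentrations. 3) Linear interpolation between surrounding doses. 4) Unreached endpoint = highest concentration. At the GI50, growth is halved. TGI marks complete inhibition of growth.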

Key:
Experiment in all cases: DTP human tumour cell line panel, 48 h
CAKI-1 renal = system: CAKI-1 renal
ACHN renal = system: ACHN renal
OVCAR-5 ovarian = system: OVCAR-5 ovarian
HOP-92 NSCLC = system: HOP-92 NSCLC
UO-31 renal = system: UO-31 renal
IGROV1 ovarian = system: IGROV1 ovarian
NCI-H226 lung = system: NCI-H226 lung
NCI-H460 lung = system: NCI-H460 lung
RXF 393 renal = system: RXF 393 renal
CCRF-CEM leukemia = system: CCRF-CEM leukemia
COLO 205 colon = system: COLO 205 colon
SK-MEL-5 melanoma = system: SK-MEL-5 melanoma
A498 renal = system: A498 renal

Row | SMILES | GI50 (CAKI-1 renal) [µM] | TGI (CAKI-1 renal) [µM] | TGI (ACHN renal) [µM] | GI50 (OVCAR-5 ovarian) [µM] | TGI (OVCAR-5 ovarian) [µM] | TGI (HOP-92 NSCLC) [µM] | GI50 (UO-31 renal) [µM] | TGI (UO-31 renal) [µM] | GI50 (IGROV1 ovarian) [µM] | TGI (IGROV1 ovarian) [µM] | GI50 (NCI-H226 lung) [µM] | TGI (NCI-H226 lung) [µM] | TGI (NCI-H460 lung) [µM] | TGI (RXF 393 renal) [µM] | GI50 (CCRF-CEM leukemia) [nM] | TGI (CCRF-CEM leukemia) [µM] | GI50 (COLO 205 colon) [µM] | TGI (COLO 205 colon) [µM] | TGI (SK-MEL-5 melanoma) [µM] | TGI (A498 renal) [µM]
1 | C/C(=N\NC(=O)c1ccccc1O)c1cccc(/C(C)=N/NC(=O)c2ccccc2O)n1.O=S(=O)([O-])[O-].[Fe+2] | > 100 | > 100 | > 100 | > 100 | > 100 | > 100 | > 100 | > 100 | 47.7 | > 100 | > 100 | > 100 | > 100 | > 100 | 1420 | 5.74 | > 100 | > 100 | – | –
2 | CC(C)C1NC(=O)CC(c2ccccc2)N(N=O)C1c1ccccc1 (centres undefined) | – | > 100 | – | – | > 100 | > 100 | – | > 100 | – | > 100 | – | > 100 | > 100 | > 100 | – | > 100 | – | > 100 | > 100 | > 100
3 | COc1cc(C2(c3ncc[nH]3)SSSCC2O)ccc1O (centres undefined) | – | > 100 | – | – | > 100 | 58.3 | – | > 100 | – | > 100 | – | > 100 | > 74.7 | 89.4 | – | > 53.6 | – | > 59.8 | > 100 | > 100
4 | Cc1c(N=C/C=C/c2ccccc2)c(=O)n(-c2ccccc2)n1C | – | > 100 | > 100 | – | > 100 | > 100 | – | > 100 | – | > 100 | – | 38 | > 100 | > 100 | – | 30.1 | – | > 100 | 31 | 87.2
5 | Cc1cccc2sc(-c3ccc(O)cc3)nc12 | – | 30.5 | 33 | – | 30.2 | – | – | 26.4 | – | 29.2 | – | 34.6 | 33.3 | 32.1 | – | 49.6 | – | 28.1 | 20.6 | 20.4
6 | O=C(N/N=C/c1cc(Br)cc(Br)c1[O-])c1ccccc1O.O=C(N/N=C/c1cc(Br)cc(Br)c1[O-])c1ccccc1O.[Zn+2] | – | 7.29 | 15 | – | 13.1 | 5.09 | – | 10.6 | – | 5.55 | – | 3.19 | 9.26 | 11.9 | – | – | – | 20.9 | 2.58 | –
7 | CCCCCCCCCOCC(COP(=O)([O-])OCC[N+](C)(C)C)OC (centres undefined) | – | > 100 | – | – | > 100 | > 100 | – | > 100 | – | > 100 | – | > 100 | > 100 | > 100 | – | > 100 | – | > 100 | > 100 | > 100
8 | NC1CCC(N(CC(=O)O)CC(=O)O)C(N(CC(=O)O)CC(=O)O)C1 (centres undefined) | – | > 100 | > 100 | – | > 100 | > 100 | – | > 100 | – | > 100 | – | > 100 | > 100 | > 100 | – | > 100 | – | > 100 | > 100 | > 100
9 | CCOC(=O)/C(=N/Nc1ccccc1)N1C(=S)C=C(C)NN(C)C1=S | – | > 100 | > 100 | – | > 100 | > 100 | – | > 100 | – | > 100 | – | – | > 100 | 20.1 | – | > 100 | – | > 100 | > 100 | –
